Test results reported in US10287295B2, “TGF-β inhibitors” (Rigel Pharmaceuticals, Inc., priority 2015, dated 2019).

Key:
HIS-TGF-βR1 T204D = HIS-TGF-βR1 T204D (Homo sapiens (Human), UniProt P36897, T204D); assay: HTRF probe displacement assay, HIS-TGF-βR1 T204D; details: read-out: TGFbr1 IC50, 1 nM HIS-TGF-βR1 T204D, 1 hour at room temperature
[1] = tested on: GDF8 signaling (GDF pSMAD, MPC11); assay: AlphaScreen SureFire SMAD3 (p-Ser423/425) assay, inhibition of GDF8 signaling; type: cell-based; details: Mus musculus, MPC-11, inhibition of GDF8 signaling, p-SMAD3 readout
[2] = tested on: TGF-β signaling (TGF-β pSMAD, MPC-11); assay: AlphaScreen SureFire SMAD3 (p-Ser423/425) assay, inhibition of TGF-β signaling; type: cell-based; details: Mus musculus, MPC-11, inhibition of TGF-β signaling, p-SMAD3 readout

HIS-TGF-βR1 T204D, sequence (P36897 34-503 T204D): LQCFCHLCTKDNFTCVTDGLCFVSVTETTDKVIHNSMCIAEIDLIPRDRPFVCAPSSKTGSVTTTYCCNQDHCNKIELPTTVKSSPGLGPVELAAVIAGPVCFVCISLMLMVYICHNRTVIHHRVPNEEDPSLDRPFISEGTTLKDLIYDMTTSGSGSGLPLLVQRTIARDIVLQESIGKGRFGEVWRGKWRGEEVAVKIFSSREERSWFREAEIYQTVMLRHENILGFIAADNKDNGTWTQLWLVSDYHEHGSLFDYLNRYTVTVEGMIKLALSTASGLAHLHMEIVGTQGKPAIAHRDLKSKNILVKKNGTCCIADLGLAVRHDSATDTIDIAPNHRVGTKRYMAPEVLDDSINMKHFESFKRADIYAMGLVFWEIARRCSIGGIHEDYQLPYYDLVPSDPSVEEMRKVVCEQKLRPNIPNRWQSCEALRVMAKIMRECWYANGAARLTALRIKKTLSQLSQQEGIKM

Row | Structure (SMILES) | IC50 (HIS-TGF-βR1 T204D) [nM] | IC50 [1] [nM] | IC50 [2] [nM]
1 | NC(=O)c1cnc2ccc(-c3c(-c4ccc(F)c(Cl)c4)ncn3[C@H]3C[C@@H](O)C3)nn12 [140′, 6-(4-(3-chloro-4-fluorophenyl)-1-((1s,3s)-3-hydroxycyclobutyl)-1H-imidazol-5-yl)imidazo[1,2-b]pyridazine-3-carboxamide] | 2.8 | – | –
2 | Cc1nc(-c2ccc(F)cc2)c(-c2ccc3ncc(C#N)n3c2)n1CC(F)F [272A′, 6-(1-(2,2-difluoroethyl)-4-(4-fluorophenyl)-2-methyl-1H-imidazol-5-yl)imidazo[1,2-a]pyridine-3-carbonitrile] | 251 | – | –
3 | Nc1nc(-c2cccc(Cl)c2)c(-c2ccc3[nH]ncc3c2)s1 [Compound 168, 4-(3-chlorophenyl)-5-(1H-indazol-5-yl)thiazol-2-amine] | – | 80 | 338
4 | Cc1nc(-c2cccc(Cl)c2)c(-c2ccc3nccn3c2)[nH]1 [Compound 104, 6-(4-(3-Chlorophenyl)-2-methyl-1H-imidazol-5-yl)imidazo[1,2-a]pyridine] | – | 80 | 510
5 | Cc1nc(-c2ccc(F)c(C)c2)c(-c2ccc3ncsc3c2)[nH]1 [Compound 73, 6-(4-(4-Fluoro-3-methylphenyl)-2-methyl-1H-imidazol-5-yl)benzo[d]thiazole] | – | 100 | 950
6 | Cn1cnc(-c2cccc(Cl)c2)c1-c1ccc2ncn(C)c2c1 [Compound 62, 6-(4-(3-Chlorophenyl)-1-methyl-1H-imidazol-5-yl)-1-methyl-1H-benzo[d]imidazole] | – | 50 | 220
7 | Cc1cccc(-c2ncn(C)c2-c2ccc3ncccc3c2)c1 [Compound 46, 6-(1-Methyl-4-(m-tolyl)-1H-imidazol-5-yl)quinoline] | – | 260 | 1680
8 | Cc1nc(-c2ccc(F)cc2)c(-c2ccc3cn[nH]c3c2)[nH]1 [Compound 78, 6-(4-(4-Fluorophenyl)-2-methyl-1H-imidazol-5-yl)-1H-indazole] | – | 290 | 2470
9 | Cc1cc(-c2nc(N)sc2-c2ccc3nccn3c2)ccc1F [Compound 155, 4-(4-fluoro-3-methylphenyl)-5-(imidazo[1,2-a]pyridin-6-yl)thiazol-2-amine] | – | 22.9 | 72.4
10 | Cc1cccc(-c2ncn(C)c2-c2ccc3nccnc3c2)c1 [Compound 47, 6-(1-Methyl-4-(m-tolyl)-1H-imidazol-5-yl)quinoxaline] | – | 180 | 660
11 | Nc1nc(-c2cccc(F)c2)c(-c2ccc3nccn3c2)s1 [Compound 187, 4-(3-fluorophenyl)-5-(imidazo[1,2-a]pyridin-6-yl)thiazol-2-amine] | – | 481 | 3100
12 | Cn1cnc(-c2ccc(F)cc2)c1-c1ccc2ncn(C)c2c1 [Compound 50, 6-(4-(4-Fluorophenyl)-1-methyl-1H-imidazol-5-yl)-1-methyl-1H-benzo[d]imidazole] | – | 1020 | 1870
